Key:
Type in all cases: in vivo
[1] = test system: soybean seeds; test: Germination of soybean T1 immature seeds on glyphosate medium; conditions: 20-50 μM glyphosate; transgenic and nontransgenic soybean seeds without desiccation treatment
Procedure: (§1) T1 immature pods from transgenic soybean plants are harvested, sterilized with 15% Clorox+2 drops of Tween 20 and rinsed with autoclaved water 3 times. Immature seeds are isolated from sterilized pods and placed on sterile fiber glass filter paper in a Petri dish. The Petri dish is […] and with 20-50 μM glyphosate for selection. One to 2 weeks later, DsRed expression is checked in the emerging shoots. Immature seeds that have been properly desiccated will have very weak or no DsRed expression as the gene is excised via the LoxP sites. […] Immature seeds that successfully underwent gene excision by desiccation will have glyphosate resistance and regenerate on medium containing 20-50 μM glyphosate.

[2] = test system: sugarcane plants; test: Glyphosate spray test on sugarcane T0 plantlets; conditions: 4× glyphosate
Procedure: T0 plantlets were then moved to soil and spray tested with 4× glyphosate to confirm excision/glyphosate resistance. […] The final confirmation of stable transformation frequency is determined based on molecular analysis such as PCR and Southern blot hybridization.

[3] = test system: tobacco seeds; test: Germination of tobacco T1 immature seeds on glyphosate medium; conditions: 20-50 μM glyphosate; transgenic and nontransgenic tobacco seeds without desiccation treatment
Procedure: as §1, with “immature seeds” for “immature pods”, “transgenic tobacco” for “transgenic soybean”, “are isolated,” for “are harvested,”, “times. Sterilized immature” for “times. Immature”, “are” for “are isolated from sterilized pods and”, “desiccated” for “desiccated will”

[4] = test system: maize inbred PHR03 plants; test: Glyphosate spray test on plants germinated from T1 mature corn seed; conditions: glyphosate+surfactant at 2× or 4×
Description: Immature embryos of maize inbred PHR03 were transformed with the excision vector AGL1/PHP54353, the expression of DsRed was visually confirmed, and T0 plantlets were regenerated as described in Example 5. Before moving the T0 plantlets to soil, the expression of DsRed was again visually confirmed.
To confirm that the natural desiccation process that occurs during seed maturation would in fact allow for the excision of DsRed and resistance to glyphosate, seeds collected from T0 plants crossed with wild-type PHR03 pollen were germinated in soil. By planting seeds straight to soil without any treatments, excision would be a result of natural processes.
Three random events were chosen to be tested by this method. Five mature T1 seeds each from the following events, PHP54353 T0 event numbers 6, 7, and 10 were placed in small pots with Metro Mix soil (Sun Gro Horticulture, McFarland, Calif.) with fertilizer and placed in the greenhouse. After plants had germinated and grown to about 12-18 cm (10-12 days after planting), the plants were then sprayed with glyphosate+surfactant at 2× or 4× concentration (1× is equivalent to what is used in the field). Before spraying, all pots were evenly spaced and positioned to ensure that they would receive an even distribution of glyphosate. The distance between the sprayer nozzle and the apical meristem of the plants was approximately 18 inches. Within 10-12 days, it was visibly evident which plants were not affected by the herbicide and which plants had been severely damaged.

O=C(O)CNCP(=O)(O)O [glyphosate, N-phosphonomethylglycine]
germination [1]: completely inhibited | Glyphosate Spray Test ([2]; independent T0 events (PHP54561, after excision) from 3 sugarcane cultivars): strong glyphosate resistance | Glyphosate Spray Test ([2]; plants of 3 nontransgenic sugarcane cultivars): completely killed | germination [3]: completely inhibited | Glyphosate Spray Test ([4]; PHP54353 lab event 6 T1 plants, fraction of plants tolerant): 2/4 plants tolerant | Glyphosate Spray Test ([4]; PHP54353 lab event 7 T1 plants): 5/5 plants damaged | Glyphosate Spray Test ([4]; PHP54353 lab event 10 T1 plants): 4/4 plants damaged | Glyphosate Spray Test ([4]; PHP54353 lab event 13 T1 plants, fraction of plants tolerant): 2/5 plants tolerant | Glyphosate Spray Test ([4]; Wild-type PHR03 plants): 4/4 plants damaged

Reference: US20140173781A1, “METHODS AND COMPOSITIONS FOR PRODUCING AND SELECTING TRANSGENIC WHEAT PLANTS” (PIONEER HI-BRED INTERNATIONAL, INC., priority 2012, published 2014)
